According to patent US20220017484A1, “INHIBITOR OF BRUTON TYROSINE KINASE” (BEIJING RECIPROCAPHARMACEUTICALS CO., LTD., priority 2018, published 2022):
pIC50: −log10 of the molar value.

What was measured:
[1] = target: Btk (Homo sapiens, UniProt Q06187); assay: Analysis of in vitro inhibitory activity of Btk (cell-free TR-FRET kinase assay); assay type: biochemical; details: for pIC50: cell-free TR-FRET, ATP at Km, 1 h, read-out: Efficacy (Btk IC50); for inhibitory effects against Btk (in words): summary of Table 1 efficacy data
Method: In a cell-free kinase assay, the method described below or a similar method was used to determine the half inhibitory concentration (IC50) of the compound of the present invention on Btk.
Btk kinase activity was determined using a time-resolved fluorescence resonance energy transfer (TR-FRET) methodology. Measurements were performed in a reaction volume of 50 μL using 96-well assay plates. […] The reaction was quenched by the addition of 1.2 equivalents of EDTA (relative to divalent cation) in […] of 1× Lance buffer (Perkin-Elmer). Streptavidin-APC (Perkin-Elmer) and Eu-labeled p-Tyr100 antibody (Perkin-Elmer) in 1× Lance buffer were added in a volume of 25 μL to give final concentrations of 100 nM and 2.5 nM, respectively. The mixture was allowed to incubate for 1 h. The TR-FRET signal was measured on a multimode plate reader at an excitation wavelength (λEx) of 330 nm and detection wavelengths (λEm) of 615 and 665 nm. The activity was determined by the ratio of fluorescence at 665 nm to that at 615 nm. For each compound, the enzyme activity was measured in the presence of different concentrations of the compound. Negative control reactions were performed in the absence of inhibitor in replicates of six, and two no-enzyme controls were used to determine baseline fluorescence levels. IC50 was obtained by fitting using the program Batch Ki (Kuzmic, et al. (2000), Anal. Biochem. 286:45-50).
The Example compounds 1-50 of the present invention were synthesized according to the above Synthetic Schemes I to VII. In the analysis of in vitro inhibitory activity of Btk, the IC50 values of the Example compounds 1-50 of the present invention were determined. The IC50 values are given according to the interval of the IC50 value, where “+++” means IC50<100 nM; “++” means 100 nM≤IC50<1000 nM; and “+” means 1000 nM≤IC50<10000 nM.

[2] = system: OCI-LY7 cells; assay: Cell viability assay (CellTiter-Glo, 72 h); assay type: cell-based; details: Homo sapiens, read-out: Results from inhibition of OCI-LY7 cells (IC50)
Method: An in vitro cell viability assay was conducted using the compounds of Examples 1-50 following the steps below:
1. After OCI-LY7 cells were recovered, they were cultured at 37° C., 5% CO2, and 95% humidity.
2. For the compounds of Examples 1-50, 8 compound solutions at different concentrations were prepared, respectively. 50 μL of the compound solution at each concentration was added to a 96-well black plate.
3. The cell concentration was adjusted to about 30,000 cells/mL. 100 μL of cell suspension was added to the 96-well plate, and mixed well. The final cell density was about 3,000 cells/well.
4. The 96-well plate was placed at 37° C., 5% CO2, and 95% humidity for 72 h.
5. The cell survival rate was measured by the method of CellTiter-Glo® Luminescent Cell Viability Assay (Promega, Cat #G7572). The fluorescence data were read on a microplate reader (EnVision™, a multi-function microplate detector, PerkinElmer).
6. The obtained fluorescence data were analyzed using GraphPad Prism software. The cell survival rate was calculated for each example compound at each concentration, and the IC50 interval of each example compound was obtained.

Btk, sequence (Q06187 whole entry): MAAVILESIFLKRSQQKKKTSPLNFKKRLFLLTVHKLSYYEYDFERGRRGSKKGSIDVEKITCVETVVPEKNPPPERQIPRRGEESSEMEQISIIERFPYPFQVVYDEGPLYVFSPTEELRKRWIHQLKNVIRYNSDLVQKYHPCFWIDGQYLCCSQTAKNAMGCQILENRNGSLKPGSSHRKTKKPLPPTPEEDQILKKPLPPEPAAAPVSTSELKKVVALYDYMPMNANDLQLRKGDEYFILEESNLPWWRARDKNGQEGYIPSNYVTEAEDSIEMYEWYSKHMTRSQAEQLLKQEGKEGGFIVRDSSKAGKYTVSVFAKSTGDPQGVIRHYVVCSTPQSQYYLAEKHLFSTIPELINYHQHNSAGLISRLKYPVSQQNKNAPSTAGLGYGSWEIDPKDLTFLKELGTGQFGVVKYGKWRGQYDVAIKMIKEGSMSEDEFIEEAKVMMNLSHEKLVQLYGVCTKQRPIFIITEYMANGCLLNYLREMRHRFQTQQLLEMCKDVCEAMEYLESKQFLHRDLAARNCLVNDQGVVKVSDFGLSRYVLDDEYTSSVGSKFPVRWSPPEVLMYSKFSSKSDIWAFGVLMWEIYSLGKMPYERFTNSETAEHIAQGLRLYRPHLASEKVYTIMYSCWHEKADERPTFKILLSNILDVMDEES

SMILES | pIC50 [1] | pIC50 [2] | inhibitory effects against Btk (in words) [1]
Cc1cc[nH]c(=O)c1-c1ccc2nc(Nc3cccc(N)c3)ncc2c1 [Example 1] | > 7.00 | > 6.30 | 
C=CC(=O)Nc1cccc(Nc2ncc3cc(-c4c(C)cc[nH]c4=O)ccc3n2)c1 [Example 2] | > 7.00 | > 6.30 | particularly excellent inhibitory effects
CCC(=O)Nc1cccc(Nc2ncc3cc(-c4c(C)cc[nH]c4=O)ccc3n2)c1 [Example 3] | > 7.00 | > 6.30 | 
C/C=C/C(=O)Nc1cccc(Nc2ncc3cc(-c4c(C)cc[nH]c4=O)ccc3n2)c1 [Example 4] | > 7.00 | > 6.30 | 
Cc1cc[nH]c(=O)c1-c1ccc2nc(Nc3cccc(NC(=O)/C=C/CN(C)C)c3)ncc2c1 [Example 5] | > 7.00 | > 6.30 | particularly excellent inhibitory effects
C=CC(=O)Nc1cc(Nc2ncc3cc(-c4c(C)cc[nH]c4=O)ccc3n2)ccc1OCCOC [Example 6] | > 7.00 | > 6.30 | 
Cc1cc[nH]c(=O)c1-c1ccc2nc(Nc3cccc(NC(=O)/C=C/CN4CCCCC4)c3)ncc2c1 [Example 7] | > 7.00 | > 6.30 | 
Cc1cc[nH]c(=O)c1-c1ccc2nc(Nc3cccc(NC(=O)/C=C/CN4CCOCC4)c3)ncc2c1 [Example 8] | > 7.00 | > 6.30 | 
Cc1cc[nH]c(=O)c1-c1ccc2nc(Nc3cccc(NC(=O)CN)c3)ncc2c1 [Example 9] | > 7.00 | 5.60 to 6.30 | 
C=CC(=O)NCC(=O)Nc1cccc(Nc2ncc3cc(-c4c(C)cc[nH]c4=O)ccc3n2)c1 [Example 10] | > 7.00 | > 6.30 | 
Cc1cc[nH]c(=O)c1-c1ccc2nc(Nc3cccc(NC(=O)CCN(C)C)c3)ncc2c1 [Example 11] | > 7.00 | > 6.30 | 
Cc1ccn(-c2cccc(C(F)(F)F)c2)c(=O)c1-c1ccc2nc(Nc3cccc(N)c3)ncc2c1 [Example 12] | 5.00 to 6.00 | > 6.30 | 
C=CC(=O)Nc1cccc(Nc2ncc3cc(-c4c(C)ccn(-c5cccc(C(F)(F)F)c5)c4=O)ccc3n2)c1 [Example 13] | 6.00 to 7.00 | > 6.30 | 
Cc1ccn(-c2ccc(N3CCOCC3)cc2)c(=O)c1-c1ccc2nc(Nc3cccc(N)c3)ncc2c1 [Example 14] | 6.00 to 7.00 | > 6.30 | 
C=CC(=O)Nc1cccc(Nc2ncc3cc(-c4c(C)ccn(-c5ccc(N6CCOCC6)cc5)c4=O)ccc3n2)c1 [Example 15] | 6.00 to 7.00 | > 6.30 | 
Cc1ccn(C)c(=O)c1-c1ccc2nc(Nc3cccc(N)c3)ncc2c1 [Example 16] | 5.00 to 6.00 | 5.60 to 6.30 | 
C=CC(=O)Nc1cccc(Nc2ncc3cc(-c4c(C)ccn(C)c4=O)ccc3n2)c1 [Example 17] | 6.00 to 7.00 | 5.60 to 6.30 | 
Cc1cc[nH]c(=O)c1-c1ccc2nc(Nc3cccc(NC(=O)[C@@H](N)C(C)C)c3)ncc2c1 [Example 18] | > 7.00 | > 6.30 | 
C=CC(=O)N[C@H](C(=O)Nc1cccc(Nc2ncc3cc(-c4c(C)cc[nH]c4=O)ccc3n2)c1)C(C)C [Example 19] | > 7.00 | > 6.30 | particularly excellent inhibitory effects
Cc1cc[nH]c(=O)c1-c1ccc2nc(Nc3cccc(NC(=O)[C@@H]4CCCN4)c3)ncc2c1 [Example 20] | 6.00 to 7.00 | 5.60 to 6.30 | 
C=CC(=O)N1CCC[C@H]1C(=O)Nc1cccc(Nc2ncc3cc(-c4c(C)cc[nH]c4=O)ccc3n2)c1 [Example 21] | > 7.00 | > 6.30 | 
CNc1cccc(Nc2ncc3cc(-c4c(C)cc[nH]c4=O)ccc3n2)c1 [Example 22] | > 7.00 | > 6.30 | 
Cc1cc[nH]c(=O)c1-c1ccc2nc(Nc3cccc(N(C)C(=O)/C=C/CN(C)C)c3)ncc2c1 [Example 24] | > 7.00 | > 6.30 | particularly excellent inhibitory effects
CCNc1cccc(Nc2ncc3cc(-c4c(C)cc[nH]c4=O)ccc3n2)c1 [Example 25] | > 7.00 | > 6.30 | 
